Results as given in PubChem BioAssay (NCI).
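Growth conditions: 96-well plates. Treatment: test compound, 48 hours, 5 concentrations. Analysis: linear interpolation between bracketing concentrations; unreached endpoints set to highest concentration. GI50: concentration for 50% inhibition of growth. TGI denotes the concentration required for complete inhibition of growth.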

Experiments:
Assay in all cases: NCI anticancer screen, dose series, 48 h
[1] = test system: MCF7 breast
[2] = test system: EKVX NSCLC
[3] = test system: CAKI-1 renal
[4] = test system: HOP-92 NSCLC
[5] = test system: OVCAR-8 ovarian
[6] = test system: A549 NSCLC
[7] = test system: BT-549 breast
[8] = test system: MDA-MB-435
[9] = test system: IGROV1 ovarian
[10] = test system: SN12C renal
[11] = test system: A498 renal
[12] = test system: KM12 colon
[13] = test system: HOP-62 NSCLC
[14] = test system: HS 578T breast
[15] = test system: RXF 393 renal
[16] = test system: COLO 205 colon
[17] = test system: T-47D breast
[18] = test system: 786-0 renal
[19] = test system: UO-31 renal
[20] = test system: NCI/ADR-RES ovarian
[21] = test system: SK-MEL-5 melanoma
[22] = test system: CCRF-CEM leukemia
[23] = test system: U251 CNS
[24] = test system: HCC-2998 colon
[25] = test system: OVCAR-3 ovarian
[26] = test system: MDA-MB-231 breast
[27] = test system: HCT-116 colon
[28] = test system: SNB-19 CNS
[29] = test system: PC-3 prostate
[30] = test system: MOLT-4 leukemia
[31] = test system: K-562 leukemia
[32] = test system: SF-539 CNS
[33] = test system: SW-620 colon
[34] = test system: SR leukemia
[35] = test system: MALME-3M melanoma
[36] = test system: NCI-H226 lung
[37] = test system: SK-OV-3 ovarian
[38] = test system: HL-60(TB) leukemia
[39] = test system: SNB-75 CNS
[40] = test system: SF-295 CNS
[41] = test system: UACC-62 melanoma
[42] = test system: UACC-257 melanoma
[43] = test system: OVCAR-5 ovarian
[44] = test system: NCI-H23 lung
[45] = test system: NCI-H460 lung
[46] = test system: DU-145 prostate
[47] = test system: OVCAR-4 ovarian
[48] = test system: TK-10 renal
[49] = test system: SK-MEL-28 melanoma
[50] = test system: SF-268 CNS
[51] = test system: ACHN renal
[52] = test system: HCT-15 colon
[53] = test system: RPMI-8226 leukemia
[54] = test system: M14 melanoma
[55] = test system: NCI-H522 lung
[56] = test system: SK-MEL-2 melanoma
[57] = test system: LOX IMVI melanoma
[58] = test system: HT29 colon

Cc1ccc2nc3ccccc3c(NCc3ccc(Cl)cc3)c2c1 showed a GI50 [1] of 1.94 µM, a TGI [1] of 8.82 µM and a GI50 [2] of 6.45 µM. It also gave a TGI [2] of 13 µM, a GI50 [3] of 4.89 µM and a TGI [3] of 11 µM. For the same compound, the GI50 [4] was 1.38 µM, the TGI [4] was 5.79 µM and the GI50 [5] was 5.77 µM. It also gave a TGI [5] of 16.6 µM, a GI50 [6] of 3.93 µM and a TGI [6] of 12.7 µM. It also gave a GI50 [7] of 6.38 µM, a TGI [7] of 13.3 µM and a GI50 [8] of 6.49 µM. For the same compound, the TGI [8] was 12.9 µM, the GI50 [9] was 2.95 µM and the TGI [9] was 10.2 µM. The GI50 [10] was 5.09 µM, the TGI [10] was 12 µM and the GI50 [11] was 5.61 µM. For the same compound, the TGI [11] was 11.9 µM, the GI50 [12] was 6.5 µM and the TGI [12] was 13.5 µM. The GI50 [13] was 6.89 µM, the TGI [13] was 16.3 µM and the GI50 [14] was 7.88 µM. For the same compound, the TGI [14] was 20.2 µM, the GI50 [15] was 1.98 µM and the TGI [15] was 8.08 µM. The GI50 [16] was 1.27 µM, the TGI [16] was 3.39 µM and the GI50 [17] was 7.03 µM. For the same compound, the TGI [17] was 19.5 µM, the GI50 [18] was 5.53 µM and the TGI [18] was 12.1 µM. For the same compound, the GI50 [19] was 1.53 µM, the TGI [19] was 8.25 µM and the GI50 [20] was 4.72 µM. For the same compound, the TGI [20] was 12.4 µM, the GI50 [21] was 6 µM and the TGI [21] was 12.3 µM. For the same compound, the GI50 [22] was 2.02 µM, the TGI [22] was 8.95 µM and the GI50 [23] was 3.85 µM. It also gave a TGI [23] of 11.6 µM, a GI50 [24] of 1.02 µM and a TGI [24] of 2.02 µM. It also gave a GI50 [25] of 6.31 µM, a TGI [25] of 13 µM and a GI50 [26] of 5.16 µM. For the same compound, the TGI [26] was 12.2 µM, the GI50 [27] was 2.15 µM and the TGI [27] was 8.27 µM. For the same compound, the GI50 [28] was 6.21 µM, the TGI [28] was 12.7 µM and the GI50 [29] was 2.19 µM. The TGI [29] was 8.9 µM, the GI50 [30] was 1.59 µM and the TGI [30] was 5.5 µM. The GI50 [31] was 1.51 µM, the TGI [31] was 5.28 µM and the GI50 [32] was 5.55 µM. The TGI [32] was 12.1 µM, the GI50 [33] was 2.83 µM and the TGI [33] was 9.42 µM. The GI50 [34] was 1.48 µM, the TGI [34] was 3.84 µM and the GI50 [35] was 5.85 µM. The TGI [35] was 12.5 µM, the GI50 [36] was 6.77 µM and the TGI [36] was 17 µM. For the same compound, the GI50 [37] was 7.7 µM, the TGI [37] was 15.8 µM and the GI50 [38] was 5.28 µM. It also gave a TGI [38] of 13.5 µM, a GI50 [39] of 6.77 µM and a TGI [39] of 13.3 µM. It also gave a GI50 [40] of 5.65 µM, a TGI [40] of 11.7 µM and a GI50 [41] of 6.89 µM. It also gave a TGI [41] of 14 µM, a GI50 [42] of 8.57 µM and a TGI [42] of 16.2 µM. It also gave a GI50 [43] of 4.67 µM, a TGI [43] of 11.1 µM and a GI50 [44] of 5.55 µM. It also gave a TGI [44] of 12 µM, a GI50 [45] of 4.02 µM and a TGI [45] of 11.1 µM. The GI50 [46] was 5.44 µM, the TGI [46] was 11.5 µM and the GI50 [47] was 5.13 µM. The TGI [47] was 11.9 µM, the GI50 [48] was 8.94 µM and the TGI [48] was 16.7 µM. The GI50 [49] was 6.42 µM, the TGI [49] was 13.1 µM and the GI50 [50] was 6.91 µM. It also gave a TGI [50] of 14.2 µM, a GI50 [51] of 5.44 µM and a TGI [51] of 11.9 µM. For the same compound, the GI50 [52] was 2.52 µM, the TGI [52] was 8.73 µM and the GI50 [53] was 1.44 µM. It also gave a TGI [53] of 4.1 µM, a GI50 [54] of 6.75 µM and a TGI [54] of 13.6 µM. The GI50 [55] was 5.85 µM, the TGI [55] was 14.6 µM and the GI50 [56] was 8.57 µM. For the same compound, the TGI [56] was 17.3 µM, the GI50 [57] was 2.07 µM and the TGI [57] was 7.46 µM. The GI50 [58] was 1.8 µM and the TGI [58] was 7.73 µM.
